Laboratory results published in EP0182608B1, “Polycyclic compounds, their preparation and formulations containing them” (priority 1984, dated 1986).

System: P388/0 tumor cells
Assay: Lymphocytic Leukemia P388/0 Test
Type: in vivo, CD2-F₁ mice
Settings: for LD₂₀: CD2-F₁ mice, intraperitoneally on days 1, 5 and 9; for 30 DAY Survivors: at the optimal dose, survivors out of 6 animals per dose level group; for T/C x 100% (Excluding 30 Day Survivors): ratio of median survival time treated/control at the optimal dose, i.p. days 1, 5, 9, criterion for activity T/C x 100 ≧120%
Excerpt: Methods for evaluating the antitumor activity of these compounds are essentially those used in the Tumor Panel by the Development Therapeutics Program, Division of Cancer Treatment, National Cancer Institute, A. Goldin, et al., Methods in Cancer Research, Vol. XVI, p. 165, Academic Press (1979). Some modifications, in dose level and schedule have been made to increase the testing efficiency.
CD2-F₁ mice, of the same sex weighing within 20±3g, are used for this test. Control and test animals are injected intraperitoneally with a suspension of 10⁶ viable P388/0 tumor cells on day 0. In each test several dose levels which bracket the LD₂₀ for the compound are evaluated; each dose level group contains 6 animals. The test compounds are prepared either in physiologic saline containing 0.05% Tween 80 or distilled water containing 5% dextrose and are administered intraperitoneally on days, 1, 5, and 9 relative to tumor implant. Doses are on a mg/kg basis according to individual animals' body weights. the day of death for each animal is recorded, the median identified for each group and the ratios of median survival time for treated (T)/control (C) groups are calculated. The criterion for activity is T/C x 100 ≧120%.

Compound	LD₂₀	30 DAY Survivors	T/C x 100% (Excluding 30 Day Survivors)
CC(CO)(CO)NCc1cc2oc3ccccc3c2c2ccccc12 [Example 3B, 2-((Benzo[b]naphtho[1,2-d]furan-5-ylmethyl)amino)-2-methyl-1,3-propanediol methanesulfonate]	10 mg/kg	2/6	+230%
CC(CO)(CO)NCc1cc2c3ccccc3sc2c2ccccc12 [Example 1, 2-((Benzo[b]naphtho [2,1-d]thiophen-5-ylmethyl)amino)-2-methyl-1,3-propanediol methanesulfonate]	35 mg/kg	1/6	+210%
CC(CO)(CO)NCc1c2ccccc2cc2c1oc1ccccc12 [Example 2B, 2-((Benzo[b]naphtho[2,3-d]furan-6-ylmethyl)amino]2-methyl-1,3-propanediol methanesulfonate]	125 mg/kg	1/6	+204%
2-Methyl-2-[[(7-methyl-7-H-benzo[c]carbazol-10-yl) methyl]amino-1,3-propanediol hydrochloride 3/10 hydrate [Example 4C]	55 mg/kg	6/6	no deaths
CC(CO)(CO)NCc1cccc2cc3c(cc12)oc1ccccc13 [Example 6B, 2-[(Benzo[b]naphthol[2,3-d]furan-7-ylmethyl)amino]-2-methyl-1,3-propanediol methanesulphonate 1/4 hydrate]	35 mg/kg	0/6	+210%
CC(CO)(CO)NCc1cc2c3ccccc3oc2c2ccccc12 [Example 5B]	100 mg/kg	4/6	+255%
